The record followed here is patent US7345068B2, “Aromatic amino acid derivatives and medicinal compositions” (priority 2002, dated 2008).

One data set addresses T1, LAT1 (Homo sapiens, UniProt Q01650).
T1 construct: Using human bladder cancer cell strain T24 cells, in which LAT1 only was strongly expressed; endogenous in cells; host or cells: T24 human bladder cancer cells
Nature of the data set: LAT1 inhibiting activity: inhibition of 14C-L-leucine uptake in T24 cells. To be noted: 1 μM 14C-Leu, 1-minute uptake. It is filed as cell-based. On the procedure:
1) To each of the weighed test compounds, DMSO was added to prepare a 100 mM solution or suspension as a DMSO stock. In an assay, the stock was diluted 1,000 fold with a buffer described below. The final concentration of the test compound was 100 μM and the final concentration of DMSO was 0.1%.
2) The LAT1 inhibiting activity of the test compound was determined in the following manner. Using human bladder cancer cell strain T24 cells, in which LAT1 only was strongly expressed, inhibiting activity of each test compound against “^14C”-L-leucine uptake was determined as the LAT1 inhibiting activity.
T24 cells in a logarithmic growth-phase were transferred to a 24-well plate at 0.8×10^5 cell/well and cultured at 37° C. for 2 days. After the plate was incubated at 37° C. on a water bath for 5 minutes, the fixed cells were washed three times with a Hank's balanced salt solution (HBSS: 25 mM HEPES, 125 mM choline chloride, 5.6 mM glucose, 4.8 mM KCl, 1.2 mM MgSO4, 1.2 mM KH2PO4, 1.3 mM CaCl2, pH 7.4) warmed to 37° C., not containing Na^+, to which 500 μl of HBSS (37° C.) was added. Then, further incubation was carried out for 7 minutes.
After the incubation was finished, a supernatant was replaced with HBSS containing 1 μM ^14C-Leu and 100 μM test compound (37° C.), followed by 1-minute uptake. Then, the cells were washed three times with HBSS of 4° C. The washed cells were added with 500 μl of 0.1 N NaOH to dissolve the cells for 20 minutes. The cell solution was transferred to a vial, to which 3 ml of a scintillator was added to measure the radioactivity with a liquid scintillation counter.
Inhibition % was calculated by the following formula. Inhibition %=100−(radioactivity of the well added with the test compound)/(radioactivity of the well not added with the test compound)×100

Structures are written as SMILES. Where a name gives a salt, the structure may show the parent alone.

T1 sequence (Q01650 whole entry): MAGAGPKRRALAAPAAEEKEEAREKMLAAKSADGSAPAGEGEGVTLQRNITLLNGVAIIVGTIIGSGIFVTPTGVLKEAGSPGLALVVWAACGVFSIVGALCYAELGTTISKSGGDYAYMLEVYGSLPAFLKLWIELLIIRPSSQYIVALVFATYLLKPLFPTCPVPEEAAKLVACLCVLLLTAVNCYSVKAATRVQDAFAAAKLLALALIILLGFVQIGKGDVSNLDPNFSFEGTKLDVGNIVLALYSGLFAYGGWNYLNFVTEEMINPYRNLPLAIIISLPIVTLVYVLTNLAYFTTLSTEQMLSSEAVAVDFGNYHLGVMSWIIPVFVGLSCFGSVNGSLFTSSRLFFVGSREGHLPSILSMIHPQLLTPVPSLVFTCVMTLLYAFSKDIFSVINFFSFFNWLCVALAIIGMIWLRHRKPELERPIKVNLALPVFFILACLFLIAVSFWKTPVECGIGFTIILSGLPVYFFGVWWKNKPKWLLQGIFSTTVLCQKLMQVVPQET
T1 sequence (P08195 102-630 partner): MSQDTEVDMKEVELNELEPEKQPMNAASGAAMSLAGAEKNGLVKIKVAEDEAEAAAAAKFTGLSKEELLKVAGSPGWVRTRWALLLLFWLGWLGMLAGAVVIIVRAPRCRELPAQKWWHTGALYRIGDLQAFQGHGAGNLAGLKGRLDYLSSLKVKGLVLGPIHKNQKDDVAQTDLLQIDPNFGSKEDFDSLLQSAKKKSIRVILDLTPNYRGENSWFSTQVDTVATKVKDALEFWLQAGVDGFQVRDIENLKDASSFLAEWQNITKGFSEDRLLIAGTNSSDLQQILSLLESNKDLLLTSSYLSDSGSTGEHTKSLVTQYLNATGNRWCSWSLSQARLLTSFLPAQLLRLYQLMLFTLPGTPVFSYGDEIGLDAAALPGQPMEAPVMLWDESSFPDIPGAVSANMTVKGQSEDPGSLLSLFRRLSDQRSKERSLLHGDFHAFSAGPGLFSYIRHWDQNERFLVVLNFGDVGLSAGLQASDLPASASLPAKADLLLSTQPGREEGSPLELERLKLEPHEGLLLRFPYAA

By IC50 is commonly meant the concentration at which inhibition is half-maximal. A low value points to inhibition by little substance. In general, melting point refers to the temperature, or range, at which the solid turns liquid. For `N[C@@H](Cc1cccc(Oc2cccc(-c3cnc4ccccc4c3)c2)c1)C(=O)O` [Example 106], the melting point was 185 to 190 °C (dec.). On LAT1, this compound had an IC50 of 830 nM.
On the same counts, the results for `N[C@@H](Cc1cc(Cl)c(OCc2cccc3nc(-c4ccc(Cl)cc4)oc23)c(Cl)c1)C(=O)O` [Example 30] are 209 to 211 °C and 300 nM.
As for `COc1ncc(-c2nc3cccc(COc4c(Cl)cc(C[C@H](N)C(=O)O)cc4Cl)c3s2)c(OC)n1` [Example 74], the melting point was 210 to 215 °C (dec.). At LAT1, this compound came in with an IC50 of 950 nM.
For `N[C@@H](Cc1cccc(Oc2cccc(-c3ccccn3)c2)c1)C(=O)O` [Example 99], in that order: 187 to 192 °C (dec.) and 520 nM.
In the case of `N[C@@H](Cc1cccc(-c2cccc(-c3ccccc3)c2)c1)C(=O)O` [Example 112], the melting point is 199 to 201 °C (dec.). The compound further displayed a half-maximal inhibitory concentration (IC50) against LAT1 of 810 nM.
For `N[C@@H](Cc1cccc(Oc2ccc3[nH]ccc3c2)c1)C(=O)O` [Example 52], in that order: 205 to 210 °C (dec.) and 500 nM.
For the compound `N[C@@H](Cc1cccc(Oc2ccc(-c3ccccc3)cc2)c1)C(=O)O` [Example 93], the melting point is 214 to 217 °C (dec.). For the same compound, on LAT1, 170 nM corresponded to half-maximal inhibition (IC50).
On the same counts, the results for `N[C@@H](Cc1cc(Cl)c(OCc2cccc3nc(-c4ccc(F)cc4)oc23)c(Cl)c1)C(=O)O` [Example 32] are 233 to 236 °C (dec.) and 240 nM.
On to `CN(C)c1ccc(-c2nc3cccc(COc4c(Cl)cc(C[C@H](N)C(=O)O)cc4Cl)c3o2)cc1` [Example 37], for which the melting point was 219 to 222 °C (dec.). At LAT1, this compound showed a half-inhibitory concentration (IC50) of 130 nM.
For `N[C@@H](Cc1cc(Cl)c(OCc2cccc3nc(Cc4ccccc4)oc23)c(Cl)c1)C(=O)O` [Example 63], in that order: 198 to 200.5 °C (dec.) and 940 nM.
As to `Cc1ccc(-c2nc3cccc(COc4c(Cl)cc(C[C@H](N)C(=O)O)cc4Cl)c3o2)cc1` [Example 36], the melting point is 221 to 231 °C (dec.). For the same compound, the IC50 at LAT1 was 200 nM.
For `N[C@@H](Cc1cc(Cl)c(OCc2cccc3nc4n(c23)Cc2ccccc2-4)c(Cl)c1)C(=O)O` [Example 73], in that order: 200 to 208 °C (dec.) and 110 nM.
As for `CN(C)c1ccc(-c2cccc(Oc3cccc(C[C@H](N)C(=O)O)c3)c2)cn1` [Example 98], at LAT1, the concentration for half-maximal inhibition (IC50) turned out to be 200 nM.
With `COc1ccc2cc(Oc3cccc(C[C@H](N)C(=O)O)c3)ccc2c1` [Example 55, 3-[2-(6-methoxy)naphthyloxy]-L-phenylalanine], the melting point was 202 to 206 °C (dec.). This compound displayed a half-maximal inhibitory concentration (IC50) on LAT1 of 290 nM.
For `CN(C)c1ccc(-c2cccc(Oc3cccc(C[C@H](N)C(=O)O)c3)c2)cn1` [Example 97], the melting point is 214 to 218 °C (dec.). Further, at LAT1, the 50% inhibitory concentration (IC50) was 10 nM.
Turning to `N[C@@H](Cc1cc(Cl)c(OCc2cccc3nc(-c4ccco4)oc23)c(Cl)c1)C(=O)O` [Example 34], the melting point is 227 to 230 °C (dec.). Besides, the IC50 at LAT1 was 290 nM.
In the case of `N[C@@H](Cc1cccc(Oc2cccc(-c3cccc(Cl)c3)c2)c1)C(=O)O` [Example 102], the melting point is 193 to 198 °C (dec.). On LAT1, this compound displayed a half-maximal inhibitory concentration (IC50) of 60 nM.
`N[C@@H](Cc1cccc(OCc2ccc3ccccc3c2)c1)C(=O)O` [Example 58, 3-[(2-naphthyl)methoxy]-L-phenylalanine]: the melting point was 201 to 204 °C (dec.). The compound also yielded an IC50 at LAT1 of 490 nM.
Consider `N[C@@H](Cc1cccc(Oc2cccc(-c3ccncc3)c2)c1)C(=O)O` [Example 96], for which the melting point is 182 to 185 °C (dec.). In addition, the IC50 on LAT1 was determined as 840 nM.
In the case of `Cc1c(-c2ccccc2)oc2c(CNc3c(Cl)cc(C[C@H](N)C(=O)O)cc3Cl)cccc2c1=O` [Example 91], the melting point is 207 to 210 °C (dec.). Further, the IC50 on LAT1 amounted to 100 nM.
For `N[C@@H](Cc1cc(Cl)c(OCc2cccc3nc(-c4ccncc4)oc23)c(Cl)c1)C(=O)O` [Example 33], in that order: 214 to 218 °C (dec.) and 150 nM.
On the same counts, the results for `N[C@@H](Cc1cccc(Oc2ccc3cc(O)ccc3c2)c1)C(=O)O` [Example 56, 3-[2-(6-hydroxy)naphthyloxy]-L-phenylalanine] are 210 to 220 °C (dec.) and 260 nM.
For `Cc1cc(C[C@H](N)C(=O)O)cc(C)c1OCc1cccc2nc(-c3ccccc3)oc12` [Example 90], in that order: 203 to 210 °C (dec.) and 110 nM.
As to `N[C@@H](Cc1cc(Cl)c(OCc2cccc3nc(-c4cccc(O)c4)oc23)c(Cl)c1)C(=O)O` [Example 48], the IC50 against LAT1 was found to be 300 nM.
In the case of `N[C@@H](Cc1cccc(Oc2cccc(-c3cccnc3)c2)c1)C(=O)O` [Example 100], the melting point was 200 to 204 °C (dec.). On LAT1, this compound registered an IC50 of 220 nM.
On the same counts, the results for `CN(C)c1ncc(-c2nc3cccc(COc4c(Cl)cc(C[C@H](N)C(=O)O)cc4Cl)c3o2)cn1` [Example 70] are 218 to 221 °C (dec.) and 290 nM.
In the case of `COc1ccc(-c2nc3cc(C)cc(COc4c(Cl)cc(C[C@H](N)C(=O)O)cc4Cl)c3o2)cc1` [Example 35], the melting point was 210 to 213 °C (dec.). Half-maximal inhibition against LAT1 (IC50) was put at 280 nM.
For `CN(CCO)c1ncc(-c2nc3cccc(COc4c(Cl)cc(C[C@H](N)C(=O)O)cc4Cl)c3o2)cn1` [Example 72], the melting point is 212 to 215 °C (dec.). The same compound yielded an IC50 against LAT1 of 360 nM.
As for `CN(C)c1ncc(-c2cccc(Oc3cccc(C[C@H](N)C(=O)O)c3)c2)cn1` [Example 108], the melting point is 191 to 194 °C (dec.). The same compound had an IC50 against LAT1 of 670 nM.
For `COC(=O)c1c(-c2ccccc2)oc2c(COc3c(Cl)cc(C[C@H](N)C(=O)O)cc3Cl)cccc2c1=O` (as salt: HCl) [Example 87], the melting point is 222.5 to 224 °C (dec.).
Take `N[C@@H](Cc1cc(Cl)c(OCc2cccc3nc(-c4ccccc4)[nH]c23)c(Cl)c1)C(=O)O` [Example 85]: the melting point was 183 to 187 °C (dec.). Further, the concentration for half-maximal inhibition (IC50) on LAT1 stood at 270 nM.
As to `N[C@@H](Cc1cccc(Oc2ccc3ccccc3c2)c1)C(=O)O` [Example 49-2), 3-(2-naphthyloxy)-L-phenylalanine], the melting point was 210 to 214 °C (dec.). The compound further showed an IC50 against LAT1 of 100 nM.
Turning to `N[C@@H](Cc1cc(Cl)c(OCc2cccc3oc(-c4ccccc4)nc23)c(Cl)c1)C(=O)O` [Example 38], the melting point was 219 to 223 °C (dec.). On LAT1, this compound displayed a half-inhibitory concentration (IC50) of 330 nM.
`COC(=O)c1c(-c2ccccc2)oc2c(COc3c(Cl)cc(C[C@H](N)C(=O)O)cc3Cl)cccc2c1=O` [Example 87] registered a 50% inhibitory concentration (IC50) on LAT1 of 230 nM.
As to `N[C@@H](Cc1cc(I)c(OCCCBr)c(I)c1)C(=O)O` [Example 1, O-(3-bromopropyl)-3,5-diiodo-L-tyrosine], the melting point is 213 to 215 °C (dec.).
With `CN(C)c1ccc(-c2cccc(Oc3cccc(C[C@H](N)C(=O)O)c3)c2)cn1` (as salt: hydrochloride) [Example 98], the melting point was 223 to 228 °C (dec.).
